Tested on: not listed separately
Test: In vivo blood counts in C57BL/6 mice
Details: twice daily IP, 8 days
Description: Values are shown pre-treatment, and 4 and 8 days after treatment.
Blood samples were taken either pre-treatment, on the 4th day into treatment or on the 8th day of treatment. Blood samples were analysed using Celltac Alpha MEK-6500K.
Samples were taken either pre-treatment, on the 4th day into treatment or on the 8th day of treatment. Blood samples were analysed using Celltac Alpha MEK-6500K.

Structure (SMILES) | adverse effects
O=C(O)CNC(=O)C1C(=O)N(C2CCCCC2)C(=O)N(C2CCCCC2)C1=O [Daprodustat] | no adverse effects

Tested on: HIF1-α in Hep3B cells
Test: Immunoblots of Hep3B cells (HIF1-α protein levels)
Format: cell-based
Design: dose or concentration left out as unconfirmed
Details: 3 hours
Description: Cells were grown to 90% confluency.
Hep3B cells were treated with compounds 117, 119, 122 and 123 of the invention (Examples 93, 95, 98 and 99) at 100 µM (A) and 20 µM (B) PHD inhibitors for 3 hours.

Structure (SMILES) | HIF-1α stabilisation (immunoblot)
O=C(NCc1ccc(-c2ccccc2)cc1)c1cnc2c(cnc3ccnn32)c1O [Compound 117, N-([1,1′-Biphenyl]-4-ylmethyl)-6-hydroxypyrazolo[1,5-a]pyrido[3,2-e]pyrimidine-7-carboxamide] | stabilise HIF-1α
O=C(Nc1ccc(-c2ccccc2)cc1)c1cnc2c(cnc3ccnn32)c1O [Compound 119, N-([1,1′-Biphenyl]-4-yl)-6-hydroxypyrazolo[1,5-a]pyrido[3,2-e]pyrimidine-7-carboxamide] | stabilise HIF-1α
Cc1cc2nc(C)c3c(O)c(C(=O)NCc4ccc(-c5ccccc5)cc4)cnc3n2n1 [Compound 122, N-([1,1′-Biphenyl]-4-ylmethyl)-6-hydroxy-2,5-dimethylpyrazolo[1,5-a]pyrido[3,2-e]pyrimidine-7-carboxamide] | stabilise HIF-1α
Cc1cc2nc(C)c3c(O)c(C(=O)NCc4ccc(C(F)(F)F)cc4)cnc3n2n1 [Compound 123, 6-Hydroxy-2,5-Dimethyl-N-(4-(trifluoromethyl)benzyl)pyrazolo[1,5-a]pyrido[3,2-e]pyrimidine-7-carboxamide] | stabilise HIF-1α

Biological target: PHD2 (Homo sapiens, UniProt Q9GZT9)
Sequence (Q9GZT9 181-426): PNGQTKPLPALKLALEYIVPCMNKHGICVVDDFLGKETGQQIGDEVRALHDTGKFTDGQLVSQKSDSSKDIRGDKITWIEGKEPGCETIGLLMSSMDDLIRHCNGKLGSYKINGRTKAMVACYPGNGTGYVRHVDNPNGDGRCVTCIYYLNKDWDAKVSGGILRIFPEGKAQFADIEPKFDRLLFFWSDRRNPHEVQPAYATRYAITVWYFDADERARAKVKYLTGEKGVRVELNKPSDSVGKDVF
Test: PHD2 RF-MS hydroxylation assay
Format: biochemical
Details: not given
Description: In brief, cDNA encoding for the catalytic domain of tPHD2 (181-426 residues) was cloned into the pET28a(+)/pET24a(+) vectors (Novagen), to enable production of tPHD2 (residues 181-426) protein with/without an N-terminal His6-tag. The tPHD2 (residues 181-426) encoding construct was transformed into the Escherichia coli BL21 DE3 cell line; protein production was induced with 0.5 mM […] (3-5 hr at 28° C.). […] The protein was exchanged into 50 mM Tris-HCl buffer (pH 7.5) and concentrated to % 40 mg/ml.
Tris(hydroxymethyl)aminomethane was from Fisher. […] All inhibition assays were carried out in 384-well polypropylene plates (Greiner Bio-One). […] PHD2 protein was prepared at a concentration of 300 nM in assay buffer and 25 μl dispensed across each 384-well assay plate. […] After loading the C4 SPE was washed with 0.1% formic acid in water to remove non-volatile buffer salts and then peptide was eluted from the SPE with 85% acetonitrile, 15% water containing 0.1% formic acid onto the mass spectrometer. Peptide charge states were monitored in positive mode. […] IC50 values were determined from non-linear regression plots using GraphPad prism.
SAR studies for PHD2 inhibition were carried out on the compounds of the invention. Compounds were screened against PHD2 using the RF-MS hydroxylation assay.

Structure (SMILES) | IC50 [µM]
O=C(NCc1ccc(-c2ccccc2)cc1)c1ccc(-n2cccn2)cc1O [Compound 16, N-([1,1′-biphenyl]-4-ylmethyl)-2-hydroxy-4-(1H-pyrazol-1-yl)benzamide] | > 10
O=C(NCc1ccc(-c2ccccc2)cc1)c1cnc(-n2cccn2)nc1 [Compound 20, N-([1,1′-Biphenyl]-4-ylmethyl)-2-(1H-pyrazol-1-yl)pyrimidine-5-carboxamide] | > 10
O=C(NCc1ccc(-c2ccccc2)cc1)c1ccc(-n2cccn2)nc1 [Compound 22, N-([1,1′-Biphenyl]-4-ylmethyl)-6-(1H-pyrazol-1-yl)nicotinamide] | > 10
O=C(NCC1CCCCC1)c1cnc(-n2cccn2)cc1O [Compound 44, N-(Cyclohexylmethyl)-4-hydroxy-6-(1H-pyrazol-1-yl)nicotinamide] | > 10
COc1cc(-n2cc(C(=O)NCc3ccc(-c4ccccc4)cc3)cn2)ncc1C#N [Compound 93] | > 10
N#Cc1ccc(-n2cc(C(=O)NCc3ccc(-c4ccccc4)cc3)cn2)nc1 [Compound 97] | > 10
O=C(O)c1ccnc(-n2cc(C(=O)NCc3ccc(-c4ccccc4)cc3)cn2)c1 [Compound 103] | > 10
O=C(Nc1ccc(-c2ccccc2)cc1)c1cnn(-c2cc(O)ccn2)c1 [Compound 108] | > 10

Tested on: not given
Test: not given
Details: mouse, in vivo, ip

Structure (SMILES) | adverse effects
O=C(NCC1CCC(C(F)(F)F)CC1)c1cnc(-n2cccn2)cc1O (centres unmarked) [Compound 68, 4-Hydroxy-6-(1H-pyrazol-1-yl)-N-((4-(trifluoromethyl)cyclohexyl)methyl)nicotinamide] | no adverse effects
